Active and inactive are the calls of the source. No cut-off for these calls is given here.
Legend:
[1] = target: T1, Tyrosinase (Agaricus bisporus) (UniProt O42713); experiment: Inhibition of mushroom tyrosinase using L-DOPA as substrate at 200 uM preincubated for 10 mins by spectrophotometric analysis relative to control
T1 sequence (whole entry): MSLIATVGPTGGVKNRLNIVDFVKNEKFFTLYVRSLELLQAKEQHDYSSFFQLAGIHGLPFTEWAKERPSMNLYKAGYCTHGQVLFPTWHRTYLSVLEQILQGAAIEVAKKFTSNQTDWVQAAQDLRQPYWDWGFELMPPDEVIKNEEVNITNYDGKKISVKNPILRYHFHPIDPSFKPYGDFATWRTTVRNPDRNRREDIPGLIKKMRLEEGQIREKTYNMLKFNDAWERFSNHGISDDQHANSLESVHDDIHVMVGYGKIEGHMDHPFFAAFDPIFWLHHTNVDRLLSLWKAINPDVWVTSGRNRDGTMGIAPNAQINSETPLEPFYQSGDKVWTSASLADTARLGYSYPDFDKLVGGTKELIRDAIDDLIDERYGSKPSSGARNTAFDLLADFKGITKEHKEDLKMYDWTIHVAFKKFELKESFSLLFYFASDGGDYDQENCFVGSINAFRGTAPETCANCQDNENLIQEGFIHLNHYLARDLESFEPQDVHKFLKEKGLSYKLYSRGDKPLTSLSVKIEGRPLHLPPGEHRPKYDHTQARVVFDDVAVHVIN

Tyrosinase [2] = target: T2, Tyrosinase (Agaricus bisporus, UniProt O42713); experiment: Inhibition of mushroom tyrosinase using L-DOPA as substrate preincubated for 10 mins by spectrophotometric analysis
T2 sequence (O42713 whole entry): T1 sequence (whole entry)

Tyrosinase [3] = target: T2, Tyrosinase
Description: Competitive inhibition of mushroom tyrosinase diphenolase activity assessed as L-DOPA conversion to dopachrome by Lineweaver-Burk plot analysis

[4] = target: T1, Tyrosinase (Agaricus bisporus); experiment: Reversible inhibition of mushroom tyrosinase diphenolase activity assessed as L-DOPA conversion to dopachrome by Lineweaver-Burk plot analysis

SMILES: COc1ccc(NC2=NC(=O)/C(=C/c3cn(-c4ccccc4)nc3-c3ccccc3)S2)c(OC)c1
- inhibition [1]: 8.03%

SMILES: COc1ccc(NC2=NC(=O)/C(=C/c3cn(-c4ccccc4)nc3-c3ccc(C)cc3)S2)c(OC)c1
- inhibition [1]: 13.5%
- IC50 (Tyrosinase [2]): 194 µM

SMILES: COc1ccc(-c2nn(-c3ccccc3)cc2/C=C2\SC(Nc3ccc(OC)cc3OC)=NC2=O)cc1
- inhibition [1]: 46.8%
- IC50 (Tyrosinase [2]): 114 µM

SMILES: COc1ccc(NC2=NC(=O)/C(=C/c3cn(-c4ccccc4)nc3-c3ccc(Cl)cc3)S2)c(OC)c1
- Ki (Tyrosinase [3]): 5.7 µM
- inhibition [1]: 38%
- IC50 (Tyrosinase [2]): 74 µM

SMILES: COc1ccc(NC2=NC(=O)/C(=C/c3cn(-c4ccccc4)nc3-c3ccc(F)cc3)S2)c(OC)c1
- Ki (Tyrosinase [3]): 7.18 µM
- inhibition [1]: 54.2%
- IC50 (Tyrosinase [2]): 104 µM

SMILES: COc1ccc(NC2=NC(=O)/C(=C/c3cn(-c4ccccc4)nc3-c3ccc(Br)cc3)S2)c(OC)c1
- Ki (Tyrosinase [3]): 9.46 µM
- inhibition [1]: 87.9%
- IC50 (Tyrosinase [2]): 131 µM

SMILES: COc1ccc(NC2=NC(=O)/C(=C/c3cn(-c4ccccc4)nc3-c3ccccc3Cl)S2)c(OC)c1
- Ki (Tyrosinase [3]): 29.1 µM
- inhibition [1]: 126%
- IC50 (Tyrosinase [2]): 34.1 µM
- inhibition [4]: Active

SMILES: COc1ccc(NC2=NC(=O)/C(=C/c3cn(-c4ccccc4)nc3-c3ccc(Cl)cc3Cl)S2)c(OC)c1
- Ki (Tyrosinase [3]): 16.9 µM
- inhibition [1]: 52%
- IC50 (Tyrosinase [2]): 81.7 µM

SMILES: COc1ccc(NC2=NC(=O)/C(=C/c3cn(-c4ccccc4)nc3-c3cccc(Cl)c3)S2)c(OC)c1
- Ki (Tyrosinase [3]): 21.5 µM
- inhibition [1]: 110%
- IC50 (Tyrosinase [2]): 52.6 µM
- inhibition [4]: Active
